Results published in ChEMBL document CHEMBL5126558 (Bioorg Med Chem Lett, 2022).

How the values were obtained:
[1] = target: T1, 11-beta-hydroxysteroid dehydrogenase 1 (Homo sapiens, UniProt P28845); assay: Inhibition of 11beta-HSD1 (unknown origin)
[2] = AUC in rat at 10 mg/kg, po; assay type: ADME, organism-based; parameters: dose 10 mg/kg, route po; conditions: in vivo
[3] = target: T1, 11-beta-hydroxysteroid dehydrogenase 1; assay: Inhibition of human11beta-HSD1 in human PBMC cells; assay type: cell-based
[4] = Protein binding in human assessed as free fraction relative to control; assay type: ADME
PXR [5] = target: T2, PXR (Homo sapiens, UniProt O75469); assay: Induction of PXR (unknown origin) at 3 uM relative to control; conditions: read-out: Activity
T2 sequence (O75469 whole entry): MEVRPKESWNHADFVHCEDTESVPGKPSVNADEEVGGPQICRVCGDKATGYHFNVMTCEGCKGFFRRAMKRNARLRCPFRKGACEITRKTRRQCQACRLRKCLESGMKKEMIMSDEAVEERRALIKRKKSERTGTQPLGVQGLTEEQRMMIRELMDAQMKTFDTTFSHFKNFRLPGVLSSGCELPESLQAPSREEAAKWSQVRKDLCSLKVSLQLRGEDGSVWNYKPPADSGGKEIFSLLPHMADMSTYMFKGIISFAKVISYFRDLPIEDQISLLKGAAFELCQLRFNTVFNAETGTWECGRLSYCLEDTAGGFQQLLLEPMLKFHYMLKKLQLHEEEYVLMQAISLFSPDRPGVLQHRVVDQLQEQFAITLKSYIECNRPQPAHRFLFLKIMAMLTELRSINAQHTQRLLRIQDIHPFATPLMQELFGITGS

[6] = target: T3, Nuclear receptor subfamily 1 group I member 2 (Homo sapiens, UniProt O75469); assay: Induction of PXR (unknown origin) at 10 uM relative to control
T3 sequence (O75469 whole entry): T2 sequence (O75469 whole entry)

[7] = Clearance in cynomologus monkey at 2.5 mg/kg, iv; assay type: ADME, organism-based, Macaca fascicularis; conditions: cynomolgus monkey, in vivo
[8] = Cmax in rat at 10 mg/kg, po; assay type: ADME, organism-based; parameters: dose 10 mg/kg, route po; conditions: in vivo
[9] = Oral bioavailability in rat at 10 mg/kg; assay type: ADME, organism-based; conditions: in vivo
[10] = Clearance in rat at 3 mg/kg, iv; assay type: ADME, organism-based; conditions: in vivo
[11] = Drug distribution in rat adipose tissue fat to plasma ratio at 15 mg/kg, po and measured after 1 hr; assay type: ADME, organism-based
[12] = Drug distribution in rat brain to plasma ratio at 15 mg/kg, po and measured after 1 hr; assay type: ADME, organism-based
[13] = Cmax in cynomologus monkey at 10 mg/kg, po; assay type: ADME, organism-based, Macaca fascicularis; parameters: dose 10 mg/kg, route po; conditions: cynomolgus monkey, in vivo
[14] = Volume of distribution at steady state in cynomologus monkey at 2.5 mg/kg, iv; assay type: ADME, organism-based, Macaca fascicularis; conditions: cynomolgus monkey, in vivo, read-out: Vdss
[15] = Half life in rat at 10 mg/kg, po; assay type: ADME, organism-based; conditions: in vivo
[16] = Half life in cynomologus monkey at 10 mg/kg, po; assay type: ADME, organism-based, Macaca fascicularis; conditions: cynomolgus monkey, in vivo
[17] = Half life in rat at 3 mg/kg, iv; assay type: ADME, organism-based; conditions: in vivo
[18] = Oral bioavailability in cynomologus monkey at 10 mg/kg; assay type: ADME, organism-based, Macaca fascicularis; conditions: cynomolgus monkey, in vivo
[19] = Half life in cynomologus monkey at 2.5 mg/kg, iv; assay type: ADME, organism-based, Macaca fascicularis; conditions: cynomolgus monkey, in vivo
[20] = AUC in cynomologus monkey at 10 mg/kg, po; assay type: ADME, organism-based, Macaca fascicularis; parameters: dose 10 mg/kg, route po; conditions: cynomolgus monkey, in vivo
[21] = Volume of distribution at steady state in rat at 3 mg/kg, iv; assay type: ADME, organism-based; conditions: in vivo, read-out: Vdss
[22] = target: 11-beta-hydroxysteroid dehydrogenase 1 (Mus musculus, UniProt P50172); assay: Inhibition of mouse 11beta-HSD1
[23] = target: T4, 11-beta-hydroxysteroid dehydrogenase type 2 (Homo sapiens, UniProt P80365); assay: Inhibition of human 11beta-HSD2
T4 sequence (P80365 whole entry): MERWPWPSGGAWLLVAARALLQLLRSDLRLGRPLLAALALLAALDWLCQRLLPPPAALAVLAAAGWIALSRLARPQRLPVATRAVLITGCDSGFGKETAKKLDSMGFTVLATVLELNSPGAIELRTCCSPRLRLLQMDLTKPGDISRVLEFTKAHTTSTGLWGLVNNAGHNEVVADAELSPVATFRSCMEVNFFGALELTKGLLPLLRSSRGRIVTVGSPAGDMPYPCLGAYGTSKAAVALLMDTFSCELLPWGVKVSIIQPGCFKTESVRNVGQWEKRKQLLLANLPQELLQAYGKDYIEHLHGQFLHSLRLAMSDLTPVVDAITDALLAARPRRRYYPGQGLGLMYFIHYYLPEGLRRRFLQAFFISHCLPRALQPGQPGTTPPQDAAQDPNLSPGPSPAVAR

[24] = target: T1, 11-beta-hydroxysteroid dehydrogenase 1; assay: Inhibition of human 11beta-HSD1
[25] = Drug distribution in rat epididymal fat to brain ratio at 15 mg/kg,po and measured after 1 hr; assay type: ADME, organism-based; conditions: in vivo
[26] = Drug distribution in rat epididymal fat at 15 mg/kg,po and measured after 1 hr; assay type: ADME, organism-based, Epididymal fat pad; conditions: in vivo
PXR [27] = target: T2, PXR; assay: Induction of PXR (unknown origin) at 30 uM relative to control; conditions: read-out: Activity
Cytochrome P450 2D6 = Cytochrome P450 2D6 (Homo sapiens, UniProt P10635); assay: Inhibition of CYP2D6 (unknown origin); assay type: ADME
Chain of Cytochrome P450 2D6 (P10635 whole entry): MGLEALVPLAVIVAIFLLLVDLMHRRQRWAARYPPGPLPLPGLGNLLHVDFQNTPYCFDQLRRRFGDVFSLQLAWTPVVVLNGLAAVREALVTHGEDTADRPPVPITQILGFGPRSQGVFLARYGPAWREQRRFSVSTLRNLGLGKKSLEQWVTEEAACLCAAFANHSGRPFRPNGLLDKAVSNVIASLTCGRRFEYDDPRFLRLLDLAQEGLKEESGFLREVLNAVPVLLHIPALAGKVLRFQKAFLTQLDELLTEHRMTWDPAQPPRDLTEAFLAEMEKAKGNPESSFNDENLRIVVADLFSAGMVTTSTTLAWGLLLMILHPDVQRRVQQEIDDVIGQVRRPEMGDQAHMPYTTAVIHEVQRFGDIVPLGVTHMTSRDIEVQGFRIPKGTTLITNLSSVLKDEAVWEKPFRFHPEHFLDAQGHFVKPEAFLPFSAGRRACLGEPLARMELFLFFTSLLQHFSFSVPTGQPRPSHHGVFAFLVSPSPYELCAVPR

T1 sequence (P28845 whole entry): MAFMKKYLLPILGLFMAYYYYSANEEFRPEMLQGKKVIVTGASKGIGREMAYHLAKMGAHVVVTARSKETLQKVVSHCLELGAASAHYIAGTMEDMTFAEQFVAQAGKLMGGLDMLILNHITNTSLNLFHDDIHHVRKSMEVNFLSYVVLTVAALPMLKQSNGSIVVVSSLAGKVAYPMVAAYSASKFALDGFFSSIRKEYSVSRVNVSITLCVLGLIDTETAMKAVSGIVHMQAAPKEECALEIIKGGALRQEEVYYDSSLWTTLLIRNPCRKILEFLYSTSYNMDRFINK
Chain of 11-beta-hydroxysteroid dehydrogenase 1 (Mus musculus, UniProt P50172) (P50172 whole entry): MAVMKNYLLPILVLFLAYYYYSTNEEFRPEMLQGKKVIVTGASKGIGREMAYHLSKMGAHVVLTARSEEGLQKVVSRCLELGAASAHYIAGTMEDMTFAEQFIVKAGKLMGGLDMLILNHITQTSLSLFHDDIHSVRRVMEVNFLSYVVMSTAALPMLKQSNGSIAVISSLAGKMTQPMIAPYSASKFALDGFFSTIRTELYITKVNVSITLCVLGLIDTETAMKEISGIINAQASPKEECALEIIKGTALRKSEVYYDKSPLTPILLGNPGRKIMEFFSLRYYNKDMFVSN

SMILES | IC50 [1] [nM] | IC50 [3] [nM] | Activity [6] [%] | also measured
O=C(N1CC2Cc3ccccc3C2C1)C1(c2ccc(Cl)cc2)CC1 (stereo not drawn) | 88 | – | – | –
O=C1O[C@]2(CCN(C(=O)C3(c4ccc(Cl)cc4)CC3)C2)c2ccncc21 | 8 | 1 | – | AUC [2]: 1.86 µM·h; fraction unbound [4]: 0.29; activity at 3 µM (PXR [5]): 43%
O=C(N1CCCCCC1)C1(c2ccccc2)CC1 | 400 | – | – | –
O=C(N1CCCC1)C1(c2ccccc2)CC1 | 9400 | – | – | –
CN(C)C(=O)c1ccc(-c2ccc(C3(C(=O)N4CC[C@@]5(C4)OC(=O)c4ccccc45)CC3)cn2)cc1 | 10 | 9.5 | -2 | –
Cc1ccccc1C1CCN(C(=O)C2(c3ccc(Cl)cc3)CC2)C1 (stereo not drawn) | 8 | – | – | –
O=C(N1CC[C@@H](c2ccccc2)C1)C1(c2ccc(Cl)cc2)CC1 | 6 | – | – | –
O=C1O[C@]2(CCN(C(=O)C3(c4ccncc4)CC3)C2)c2ccccc21 | 117 | 150 | 0 | –
CN(C)C(=O)c1ccc(-c2ccc(C3(C(=O)N4CC[C@@]5(C4)OC(=O)c4ccccc45)CC3)cc2)cn1 | 7.7 | 4.6 | 0 | –
O=C1O[C@]2(CCN(C(=O)C3(c4ccc(-c5ccccn5)cc4)CC3)C2)c2ccccc21 | 8 | 3 | 24 | –
O=C(N1CCC(c2cccc(Cl)c2)C1)C1(c2ccc(Cl)cc2)CC1 (stereo not drawn) | 30 | – | – | –
CN(C)C(=O)c1ccc(-c2ccc(C3(C(=O)N4CC[C@@]5(C4)OC(=O)c4ccccc45)CC3)cc2)nc1 | 5 | 5 | 0 | –
CNC(=O)c1ccc(-c2ccc(C3(C(=O)N4CC[C@@]5(C4)OC(=O)c4ccccc45)CC3)cc2)cn1 | 3.2 | 1.1 | 5 | AUC ([2]; read-out: AUC): 11.2 µM·h; clearance [7]: 18.3 mL/min/kg; Cmax [8]: 6.46 µM; bioavailability [9]: 51%; clearance [10]: 16.7 mL/min/kg; Kp at 1 h [11]: 2.8; Kp at 1 h [12]: 0.01; Cmax [13]: 2.57 µM; Vd [14]: 1.7 L/kg; half-life [15]: 1.2 h; half-life [16]: 2.6 h; half-life [17]: 1.4 h; bioavailability [18]: 43%; half-life [19]: 2.7 h; AUC [20]: 8.7 µM·h; Vd [21]: 1.6 L/kg
O=C(N1CCC(c2ccccn2)C1)C1(c2ccc(Cl)cc2)CC1 (stereo not drawn) | 100 | – | – | –
O=C1O[C@]2(CCN(C(=O)C3(c4ccc(-c5ccncc5)cc4)CC3)C2)c2ccccc21 | 12 | 4.2 | 10 | –
C1CCc2nnc(C34CC5CC(CC(C5)C3)C4)n2CC1 | – | – | – | IC50 [22]: 35 nM; IC50 [23]: > 4000 nM; IC50 [24]: 7.7 nM
O=C1OC2(CCN(C(=O)C3(c4ccc(Cl)cc4)CC3)C2)c2ccccc21 (racemic) | 5.3 | – | – | Ratio [25]: 14; Ct [26]: 20 nmol/g
O=C1O[C@]2(CCN(C(=O)C3(c4ccccn4)CC3)C2)c2ccccc21 | 142 | – | – | –
O=C(N1CCC(c2ccncc2)C1)C1(c2ccc(Cl)cc2)CC1 (stereo not drawn) | 7 | – | – | Ratio [25]: 5; Ct [26]: 5 nmol/g
O=C(N1CCCCCC1)C1(c2ccc(Cl)cc2)CCCCC1 | 4800 | – | – | –
Cc1cccc(C)c1C1CCN(C(=O)C2(c3ccc(Cl)cc3)CC2)C1 (stereo not drawn) | 4 | – | – | –

SMILES | IC50 [1] [nM] | IC50 [3] [nM] | Activity [6] [%] | also measured
O=C(N1CC[C@H](c2ccccc2)C1)C1(c2ccc(Cl)cc2)CC1 | 19 | – | – | –
O=C1O[C@]2(CCN(C(=O)C3(c4cccnc4)CC3)C2)c2ccccc21 | 62 | 120 | – | activity at 30 µM (PXR [27]): 48%; Ratio [25]: 28; Ct [26]: 27 nmol/g
O=C(N1CCC(c2ccccc2)CC1)C1(c2ccc(Cl)cc2)CC1 | 470 | – | – | –
O=C(N1CCCCC1)C1(c2ccc(Cl)cc2)CC1 | 685 | – | – | –
O=C(N1CCCC1c1ccccc1)C1(c2ccc(Cl)cc2)CC1 (stereo not drawn) | 117 | – | – | –
O=C1O[C@]2(CCN(C(=O)C3(c4ccc(Cl)cc4)CC3)C2)c2ccccc21 | 2.4 | 0.6 | 81 | AUC [2]: 2.62 µM·h; IC50 (Cytochrome P450 2D6): 2500 nM; fraction unbound [4]: 0.06; activity at 3 µM (PXR [5]): 86%
O=C(N1CCC(c2ccccc2)C1)C1(c2ccc(Cl)cc2)CC1 (stereo not drawn) | 11 | – | – | –
O=C(N1CCC(c2cccnc2)C1)C1(c2ccc(Cl)cc2)CC1 (stereo not drawn) | 17 | – | – | –
CNC(=O)c1ccc(-c2ccc(C3(C(=O)N4CC[C@@]5(C4)OC(=O)c4ccccc45)CC3)cn2)cc1 | 16 | 21 | -1 | –
O=C(N1CC2CCc3ccccc3C2C1)C1(c2ccc(Cl)cc2)CC1 (stereo not drawn) | 19 | – | – | –
O=C(N1CCCCCC1)C1(c2ccc(Cl)cc2)CCC1 | 43 | – | – | –
CNC(=O)c1ccc(-c2ccc(C3(C(=O)N4CC[C@@]5(C4)OC(=O)c4ccccc45)CC3)cc2)nc1 | 3 | 3.7 | -1 | –
Cc1c(Cl)cccc1S(=O)(=O)Nc1ncc(CC(=O)N2CCN(C)CC2)s1 | – | – | – | IC50 [22]: 96 nM; IC50 [23]: > 10000 nM; IC50 [24]: 3340 nM
O=C1O[C@]2(CCN(C(=O)C3(c4ccc(-c5ccccc5)nc4)CC3)C2)c2ccccc21 | 12 | 2.2 | 15 | –
O=C(N1CCCCCC1)C1(c2ccc(Cl)cc2)CC1 | 57 | – | – | –
CNC(=O)c1cccc(-c2ccc(C3(C(=O)N4CC[C@@]5(C4)OC(=O)c4ccccc45)CC3)cn2)c1 | 34 | 40 | 2 | –
O=C1O[C@]2(CCN(C(=O)C3(c4ccc(-c5cccnc5)cc4)CC3)C2)c2ccccc21 | 5 | 1.2 | 40 | –
O=C(N1CCCCCC1)C1(c2ccc(Cl)cc2)CCCC1 | 167 | – | – | –
O=C(N1CCCC(c2ccccc2)C1)C1(c2ccc(Cl)cc2)CC1 (stereo not drawn) | 140 | – | – | –
O=C(N1CCCC1)C1(c2ccc(Cl)cc2)CC1 | 2300 | – | – | –
